# Laboratory results from patent US20250195444A1, “POLYMER-COATED NANOPARTICLES AND PREPARATION METHOD THEREFOR” (SCINDY PHARMACEUTICAL (SUZHOU) CO., LTD, priority 2022, published 2025).
# Legend:
# [1] = test system: Carbapenem-susceptible Acinetobacter baumannii (10); experiment: In vitro antimicrobial susceptibility testing, broth microdilution MIC; assay type: cell-based; details: 10 strains
# Source text: (§1) A total of 44 strains of clinically isolated Gram-negative bacteria were collected for antimicrobial susceptibility testing, including 12 strains of Escherichia coli (carbapenem-susceptible), 12 strains of Klebsiella pneumoniae (carbapenem-susceptible), 10 strains of Acinetobacter baumannii (carbapenem-susceptible), and 10 strains of Pseudomonas aeruginosa (carbapenem-susceptible).
# (§2) According to the recommendations of the 2021 edition of the Clinical and Laboratory Standards Institute (CLSI), a broth microdilution method was used to measure the minimum inhibitory concentration (MIC) of a test substance against clinical isolates. • (1) Preparation of antimicrobial drug: The test drug was dissolved and diluted, and the control drug was dissolved and diluted according to CLSI requirements. The test concentration range of the antibacterial drug solution was 0.015 mg/L to 32 mg/L. • (2) Culture medium: Cation adjusted muellerhinton broth (CAMHB), a product of BD Company, USA, batch number: 9324795. • (3) Inoculation amount: Fresh pure colonies on Columbia blood agar were picked using a direct colony suspension method. The colonies were adjusted to a McFarland turbidity of 0.5 and then appropriately diluted. The final concentration of the test bacteria was 10^5 CFU/mL. • (4) Culture conditions: The colonies were cultured in air at 35° C.±2° C. for 16 to 20 hours. • (5) Reading and judgment of results: For colistin, according to the European EUCAST breakpoint judgment standard, a result of <2 mg/L is susceptible, and a result of >4 mg/L is resistant. The lowest antimicrobial drug concentration that inhibits bacterial growth is read as an MIC value. • (6) Quality control strains: Escherichia coli ATCC 25922 and Pseudomonas aeruginosa ATCC 27853. • (7) Data statistics: WHONET version 5.6 software was used to perform statistical analysis on the results of the antimicrobial susceptibility testing.
# [2] = test system: Carbapenem-susceptible Pseudomonas aeruginosa (10); experiment: as above; assay type: cell-based; details: 10 strains
# Source text: as §1, §2
# [3] = test system: Carbapenem-susceptible Gram-negative bacteria (44); experiment: as above; assay type: cell-based; details: 44 strains
# Source text: as §1, §2
# [4] = test system: Carbapenem-susceptible Klebsiella pneumoniae (12); experiment: as above; assay type: cell-based; details: 12 strains
# Source text: as §1, §2
# [5] = test system: Carbapenem-susceptible Escherichia coli (12); experiment: as above; assay type: cell-based; details: 12 strains
# Source text: as §1, §2
# [6] = Safety test, maximum tolerated dose in ICR mice; assay type: in vivo; details: male ICR mice, intravenous injection, 1.5 mg/ml
# Source text: The drug safety of colistin sulfate, the nanoparticles of Examples 1 and 2, and the nanoparticles of Comparative Examples 1 and 2 in mice was compared.
# Test indicators: clinical observation, animal morbidity/death, and weight change. The maximum compound dosage that causes the weight loss of mice to not exceed 20% and no animal death is the maximum tolerated dose.
# [7] = Safety test, maximum tolerated dose in Balb/c nude mice; details: male Balb/c nude mice, intravenous injection, 1.0 mg/ml
# Protocol: Male Balb/c nude mice (purchased from Shanghai Lingchang Experimental Animal Co., Ltd.), 6 to 7 weeks old and weighing 17 g to 21 g, were given platinum cyclohexanediamine dihydrate or a platinum cyclohexanediamine dihydrate polymer-coated nanoparticle solution by intravenous injection at an administration concentration of 1.0 mg/ml. The dose volume was adjusted according to the weight of the animal. The highest dose that enables all subjects in the test to survive continuously is defined as MTD.
# Animal grouping: Before starting the administration, the animals were weighed and randomly grouped according to the weight.
# Test indicators: After administration, the mice were observed continuously for at least 14 days, and the observation interval and frequency were properly arranged so as to observe the occurrence of toxic reactions, recovery time, animal death time, etc. If the toxic reactions of the mice occur slowly or the mice recover slowly, the observation time should be appropriately extended.
# HT29 cells = experiment: Proliferation of HT29 cells in vitro (CCK8); assay type: cell-based; details: 72 hours of drug treatment, read-out: HT-29ReIC50
# Protocol: Cell culture: HT29 (Cat. No.: CBP30001L, purchased from Cobioer) was revived and cultured with 1640+10% FBS.
# Plating: Normally growing cells were digested with a trypsin cell digestion solution, then centrifuged, counted, and plated into a 96-well plate at a cell density of 3000 cells/well, 100 μL per well, for a total of 60 wells, and sealed with an appropriate amount of PBS around to prevent water evaporation in the edge wells.
# Administration: The administration was performed on the second day after cell plating, 100 μL of a drug solution was added to each well, and two replicate wells were set up for each concentration point.
# Detection: After 72 hours of drug treatment, all the liquid in the 96-well plate was poured out, and 100 μL of a CCK8 (diluted to 1:9 with culture medium) solution was added to each well. After incubation at 37° C. for a period of time (OD450 of Vehicle group reached above 1.0), the absorption at 450 nm was detected using an ELISA reader.
# Data processing: Inhibition Rate (%)=(1−OD450Sample/OD450Vehicle)×100, where
# OD450Sample is the 450 nm absorption value of the drug-treated group, and OD450Vehicle is the 450 nm absorption value of the DMSO control group. GraphPad Prism 8.0 software was used to draw an S-shaped dose-survival rate curve with a nonlinear regression model, and the IC50 value was calculated.
substance,measurement,setting,value
colistin sulfate,MIC50,[1],0.5 µg/mL
same,MIC90,[1],0.5 µg/mL
same,Mode (MIC),[1],0.5 µg/mL
same,Resistance rate (%),[1]; EUCAST breakpoint,0%
same,Susceptibility rate (%),[1]; EUCAST breakpoint,100%
same,MIC50,[2],1 µg/mL
same,MIC90,[2],2 µg/mL
same,Mode (MIC),[2],2 µg/mL
same,Resistance rate (%),[2]; EUCAST breakpoint,0%
same,Susceptibility rate (%),[2]; EUCAST breakpoint,100%
same,MIC50,[3],0.5 µg/mL
same,MIC90,[3],2 µg/mL
same,Mode (MIC),[3],0.5 µg/mL
same,Resistance rate (%),[3]; EUCAST breakpoint,0%
same,Susceptibility rate (%),[3]; EUCAST breakpoint,100%
same,MIC50,[4],0.5 µg/mL
same,MIC90,[4],0.5 µg/mL
same,Mode (MIC),[4],0.5 µg/mL
same,Resistance rate (%),[4]; EUCAST breakpoint,0%
same,Susceptibility rate (%),[4]; EUCAST breakpoint,100%
same,MIC50,[5],0.125 µg/mL
same,MIC90,[5],0.25 µg/mL
same,Mode (MIC),[5],0.125 µg/mL
same,Resistance rate (%),[5]; EUCAST breakpoint,0%
same,Susceptibility rate (%),[5]; EUCAST breakpoint,100%
same,MTD,[6],8 mg/kg
platinum cyclohexanediamine dihydrate [Cyclohexanediamine platinum dihydrate],MTD,[7],<4 mpk
same,IC50,HT29 cells,1.61 ± 0.23 µM
